Source: ChEMBL document CHEMBL5550152, “Design, synthesis and evaluation of novel prostate-specific membrane antigen-targeted aryl [18F]fluorosulfate PET tracers” (Bioorg Med Chem, 2024)

Key:
[1] = Drug distribution in nude mouse liver xenografted with human 22Rv1 cells at 8.1 MBq,iv measured after 1 hr; assay type: ADME, tissue-based, CWR22R; settings: in vivo
[2] = Drug distribution in nude mouse gall bladder xenografted with human 22Rv1 cells at 8.1 MBq,iv measured after 4 hrs; assay type: ADME, tissue-based, CWR22R; settings: in vivo
[3] = Drug distribution in nude mouse large intestine xenografted with human 22Rv1 cells at 8.1 MBq,iv measured after 2 hrs in presence of 2-PMPA; assay type: ADME, tissue-based, CWR22R; settings: in vivo
[4] = Drug distribution in nude mouse stomach xenografted with human 22Rv1 cells at 8.1 MBq,iv measured after 4 hrs; assay type: ADME, tissue-based, CWR22R; settings: in vivo
[5] = Drug distribution in nude mouse brain xenografted with human 22Rv1 cells at 8.1 MBq,iv measured after 4 hrs; assay type: ADME, tissue-based, CWR22R; settings: in vivo
[6] = Drug distribution in nude mouse small intestine xenografted with human 22Rv1 cells at 8.1 MBq,iv measured after 4 hrs; assay type: ADME, tissue-based, CWR22R; settings: in vivo
[7] = Drug distribution in nude mouse blood xenografted with human 22Rv1 cells at 8.1 MBq,iv measured after 2 hrs; assay type: ADME, tissue-based, CWR22R; settings: in vivo
[8] = Drug distribution in nude mouse bone xenografted with human 22Rv1 cells at 8.1 MBq,iv measured after 4 hrs; assay type: ADME, tissue-based, Bone element, CWR22R; settings: in vivo
[9] = Drug distribution in nude mouse spleen xenografted with human 22Rv1 cells at 8.1 MBq,iv measured after 2 hrs; assay type: ADME, tissue-based, CWR22R; settings: in vivo
[10] = Drug distribution in nude mouse tumor xenografted with human 22Rv1 cells at 8.1 MBq,iv measured after 2 hrs in presence of 2-PMPA; assay type: ADME, tissue-based, Neoplasm, CWR22R; settings: in vivo
[11] = Drug uptake in human 22Rv1 cells at 3.7 10^-2MBq pretreated with 2-PMPA for 30 mins followed by compound addition and measured after 4 hr relative to control; assay type: ADME, cell-based; settings: cwr22r
[12] = Drug distribution in nude mouse brain xenografted with human 22Rv1 cells at 8.1 MBq,iv measured after 1 hr; assay type: ADME, tissue-based, CWR22R; settings: in vivo
[13] = Drug uptake in mouse tumor xenografted with human 22Rv1 cells at 7.4 MBq, iv measured after 4 hrs by PET imaging analysis relative to control; assay type: ADME, organism-based, Neoplasm, CWR22R; settings: in vivo
[14] = Drug distribution in nude mouse bone xenografted with human 22Rv1 cells at 8.1 MBq,iv measured after 2 hrs; assay type: ADME, tissue-based, Bone element, CWR22R; settings: in vivo
[15] = Drug distribution in nude mouse spleen xenografted with human 22Rv1 cells at 8.1 MBq,iv measured after 2 hrs in presence of 2-PMPA; assay type: ADME, tissue-based, CWR22R; settings: in vivo
[16] = Drug distribution in nude mouse liver xenografted with human 22Rv1 cells at 8.1 MBq,iv measured after 2 hrs; assay type: ADME, tissue-based, CWR22R; settings: in vivo
[17] = Drug distribution in nude mouse brain xenografted with human 22Rv1 cells at 8.1 MBq,iv measured after 2 hrs; assay type: ADME, tissue-based, CWR22R; settings: in vivo
[18] = Drug distribution in nude mouse large intestine xenografted with human 22Rv1 cells at 8.1 MBq,iv measured after 2 hrs; assay type: ADME, tissue-based, CWR22R; settings: in vivo
[19] = Drug distribution in nude mouse lung xenografted with human 22Rv1 cells at 8.1 MBq,iv measured after 1 hr; assay type: ADME, tissue-based, CWR22R; settings: in vivo
[20] = Drug distribution in nude mouse muscle tissue xenografted with human 22Rv1 cells at 8.1 MBq,iv measured after 2 hrs; assay type: ADME, tissue-based, CWR22R; settings: in vivo
[21] = Drug uptake in mouse tumor xenografted with human 22Rv1 cells at 7.4 MBq, iv pretreated with 2-PMPA measured after 4 hrs by PET imaging analysis relative to control; assay type: ADME, organism-based, Neoplasm, CWR22R; settings: in vivo
[22] = Stability of the compound in PBS buffer measured after 4 hrs by radio-HPLC analysis; assay type: physicochemical
[23] = Drug uptake in human 22Rv1 cells at 3.7 10^-2MBq measured after 4 hrs relative to control; assay type: ADME, cell-based; settings: cwr22r
[24] = Drug distribution in nude mouse kidney xenografted with human 22Rv1 cells at 8.1 MBq,iv measured after 4 hrs; assay type: ADME, tissue-based, CWR22R; settings: in vivo
[25] = Stability in mouse plasma measured after 4 hrs by radio-HPLC analysis; assay type: ADME, cell-free
[26] = Drug distribution in nude mouse spleen xenografted with human 22Rv1 cells at 8.1 MBq,iv measured after 1 hr; assay type: ADME, tissue-based, CWR22R; settings: in vivo
[27] = Drug distribution in nude mouse small intestine xenografted with human 22Rv1 cells at 8.1 MBq,iv measured after 2 hrs in presence of 2-PMPA; assay type: ADME, tissue-based, CWR22R; settings: in vivo
[28] = Drug distribution in nude mouse lung xenografted with human 22Rv1 cells at 8.1 MBq,iv measured after 2 hrs in presence of 2-PMPA; assay type: ADME, tissue-based, CWR22R; settings: in vivo
[29] = Drug distribution in nude mouse heart xenografted with human 22Rv1 cells at 8.1 MBq,iv measured after 2 hrs in presence of 2-PMPA; assay type: ADME, tissue-based, CWR22R; settings: in vivo
[30] = Drug uptake in mouse tumor xenografted with human 22Rv1 cells at 7.4 MBq, iv pretreated with 2-PMPA measured after 2 hrs by PET imaging analysis relative to control; assay type: ADME, organism-based, Neoplasm, CWR22R; settings: in vivo
[31] = Drug distribution in nude mouse brain xenografted with human 22Rv1 cells at 8.1 MBq,iv measured after 2 hrs in presence of 2-PMPA; assay type: ADME, tissue-based, CWR22R; settings: in vivo
[32] = Drug distribution in nude mouse large intestine xenografted with human 22Rv1 cells at 8.1 MBq,iv measured after 4 hrs; assay type: ADME, tissue-based, CWR22R; settings: in vivo

Question: With `COc1cc(C(=O)N[C@@H](CCC(=O)O)C(=O)N[C@@H](CCC(=O)O)C(=O)NCc2ccc(C(=O)N[C@@H](Cc3ccc4ccccc4c3)C(=O)NCCCC[C@H](NC(=O)N[C@@H](CCC(=O)O)C(=O)O)C(=O)O)cc2)ccc1OS(=O)(=O)[18F]` as the compound, how does the Drug uptake [1] read?
Answer: The Drug uptake was 4.61 % ID/g.

Question: What about the Drug uptake [2] of the same compound?
Answer: The Drug uptake was 1.39 % ID/g.

Question: And the Drug uptake [3]?
Answer: The Drug uptake was 1.1 % ID/g.

Question: And the Drug uptake [4]?
Answer: The Drug uptake was 0.44 % ID/g.

Question: And the Drug uptake [5]?
Answer: The Drug uptake was 0.02 % ID/g.

Question: And the Drug uptake [6]?
Answer: Its Drug uptake is 0.79 % ID/g.

Question: And the Drug uptake [7]?
Answer: The Drug uptake was 2.95 % ID/g.

Question: And the Drug uptake [8]?
Answer: The Drug uptake was 3.76 % ID/g.

Question: And the Drug uptake [9]?
Answer: The Drug uptake was 1.23 % ID/g.

Question: What about the Drug uptake [10] of the same compound?
Answer: Its Drug uptake is 1.82 % ID/g.

Question: What about the Drug uptake [11] of the same compound?
Answer: Its Drug uptake is 0.26%.

Question: What about the Drug uptake [12] of the same compound?
Answer: The Drug uptake was 0.15 % ID/g.

Question: And the Drug uptake [13]?
Answer: The Drug uptake was 3.25 % ID/g.

Question: And the Drug uptake [14]?
Answer: Its Drug uptake is 3.79 % ID/g.

Question: And the Drug uptake [15]?
Answer: Its Drug uptake is 0.83 % ID/g.

Question: And the Drug uptake [16]?
Answer: The Drug uptake was 1.79 % ID/g.

Question: And the Drug uptake [17]?
Answer: The Drug uptake was 0.1 % ID/g.

Question: What about the Drug uptake [18] of the same compound?
Answer: Its Drug uptake is 2.77 % ID/g.

Question: What about the Drug uptake [19] of the same compound?
Answer: The Drug uptake was 3.18 % ID/g.

Question: What about the Drug uptake [20] of the same compound?
Answer: Its Drug uptake is 0.45 % ID/g.

Question: And the Drug uptake [21]?
Answer: The Drug uptake was 1.4 % ID/g.

Question: And the Stability [22]?
Answer: The Stability was “Stable”.

Question: And the Drug uptake [23]?
Answer: Its Drug uptake is 1.19%.

Question: And the Drug uptake [24]?
Answer: The Drug uptake was 19.91 % ID/g.

Question: And the Stability [25]?
Answer: Its Stability is “Stable”.

Question: And the Drug uptake [26]?
Answer: The Drug uptake was 1.85 % ID/g.

Question: And the Drug uptake [27]?
Answer: The Drug uptake was 9.02 % ID/g.

Question: What about the Drug uptake [28] of the same compound?
Answer: Its Drug uptake is 1.58 % ID/g.

Question: What about the Drug uptake [29] of the same compound?
Answer: Its Drug uptake is 0.85 % ID/g.

Question: And the Drug uptake [30]?
Answer: Its Drug uptake is 1.37 % ID/g.

Question: And the Drug uptake [31]?
Answer: Its Drug uptake is 0.08 % ID/g.

Question: And the Drug uptake [32]?
Answer: The Drug uptake was 1.34 % ID/g.
